Results: US9221791B2, “Metalloenzyme inhibitor compounds” (Viamet Pharmaceuticals, Inc., priority 2011, dated 2015)
Converted amounts (≈) assume the structure as drawn.

These compounds were tested on Septoria tritici (ATCC 26517) (assay: Minimum Inhibitory Concentration (MIC) (Septoria tritici), CLSI-based microdilution). Details: S. tritici ATCC 26517; 22° C. for seven days; 50% reduction in growth.
Format: cell-based
Description: C. Minimum Inhibitory Concentration (MIC) (Septoria tritici)
Compounds of the present disclosure were assessed for their ability to inhibit the growth of a common strain of the fungal plant pathogen Septoria tritici (ATCC 26517) using a procedure based on a Clinical and Laboratory Standards Institute (CLSI) microdilution assay protocol for filamentous fungi.
Stock solutions of the test compounds and standards were prepared in DMSO at 6400 μg/mL. Each stock solution was used to prepare a 2-fold dilution series ranging from 16 to 0.016 μg/mL (total of 11 compound concentrations) in RPMI-1640 (Roswell Park Memorial Institute) medium containing 3-(N-morpholino)propanesulfonic acid (MOPS) buffer and 2% DMSO. A 100 μL aliquot of the dilutions was added to columns 1 (16 μg/mL compound) through 11 (0.016 μg/mL compound) of a 96-well microtiter plate. This format was replicated in a second row of the microtiter plate. Thus, each microtiter plate could include 11 concentrations of four test or control compounds replicated twice. A 100 μL aliquot of RPMI-1640/MOPS/2% DMSO medium was added to column 12 (no compound control) of the microtiter plate.
A fresh culture of S. tritici was used to prepare a solution of approximately 5×10^4 colony-forming units per milliliter (cfu/mL) in RPMI/MOPS medium without DMSO. A 100 µL aliquot of this solution was added to all 96 wells in the microtiter plate. […] The assay plates were incubated at 22° C. for seven days in the dark without shaking.
In each case of Table 3 the Septoria rating scale is as follows: […]

Which “Septoria Rating (MIC)” value does the source give for `CC(F)(c1ccc(Br)cn1)C(O)(Cn1cnnn1)c1ccc(F)cc1F` (centres unmarked) [Compound 85, 3-(5-Bromopyridin-2-yl)-2-(2,4-difluorophenyl)-3-fluoro-1-(1H-tetrazol-1-yl)butan-2-ol] here?
Its value is “C (>1.5-4)”.

`OC(Cn1cnnn1)(c1ccc(F)cc1F)C(F)(F)c1ccc(-c2ccc(F)nc2)cn1` (stereo not drawn) [31(+), 2-(2,4-Difluorophenyl)-1,1-difluoro-1-(6′-fluoro-[3,3′-bipyridin]-6-yl)-3-(1H-tetrazol-1-yl)propan-2-ol] was tested. Which “Septoria Rating (MIC)” value did it give?
The value was “A (≦0.5)”.

Same assay, conditions: Zymoseptoria tritici, ATCC26517, 168 h, S. tritici ATCC 26517; 22° C. for seven days; 50% reduction in growth; read-out: Septoria Rating (MIC)

`COCCCc1ccc(C(F)(F)C(O)(Cn2cnnn2)c2ccc(F)cc2F)nc1` (centres unmarked) [Compound 50, 2-(2,4-Difluorophenyl)-1,1-difluoro-1-(5-(3-methoxypropyl)pyridin-2-yl)-3-(1H-tetrazol-1-yl)propan-2-ol] was tested. Which MIC did it give?
The MIC was 1.5 µg/mL (≈ 3.53 µM).

With `OC/C=C/c1ccc(C(F)(F)C(O)(Cn2cnnn2)c2ccc(F)cc2F)nc1` (centres unmarked) [Compound 43, (E)-3-(6-(2-(2,4-Difluorophenyl)-1,1-difluoro-2-hydroxy-3-(1H-tetrazol-1-yl)propyl)pyridin-3-yl)prop-2-en-1-ol] as the compound, how does the MIC read?
The MIC was 1.5 to 4 µg/mL (≈ 3.66 to 9.77 µM).

With `N#Cc1ccc(OCc2ccc(C(F)(F)C(O)(Cn3ncnn3)c3ccc(F)cc3F)nc2)cc1` (centres unmarked) [Compound 80, 4-((6-(2-(2,4-Difluorophenyl)-1,1-difluoro-2-hydroxy-3-(2H-tetrazol-2-yl)propyl)pyridin-3-yl)methoxy)benzonitrile] as the compound, how does the MIC read?
Its MIC is greater than 4 µg/mL.

`CC(O)/C=C/c1ccc(C(F)(F)C(O)(Cn2cnnn2)c2ccc(F)cc2F)nc1` (centres unmarked) [Compound 46, (E)-4-(6-(2-(2,4-Difluorophenyl)-1,1-difluoro-2-hydroxy-3-(1H-tetrazol-1-yl)propyl)pyridin-3-yl)but-3-en-2-ol] was tested. Which MIC did it give?
Its MIC is 1.5 to 4 µg/mL (≈ 3.54 to 9.45 µM).

`OCCCc1ccc(C(F)(F)C(O)(Cn2cnnn2)c2ccc(F)cc2F)nc1` (centres unmarked) [Compound 44, 3-(6-(2-(2,4-Difluorophenyl)-1,1-difluoro-2-hydroxy-3-(1H-tetrazol-1-yl)propyl)pyridin-3-yl)propan-1-ol] was tested. Which MIC did it give?
Its MIC is 1.5 to 4 µg/mL (≈ 3.65 to 9.72 µM).

For `OC(Cc1cn[nH]c1)(c1ccc(F)cc1F)C(F)(F)c1ccccn1` (centres unmarked) [Compound 65, 2-(2,4-Difluorophenyl)-1,1-difluoro-3-(1H-pyrazol-4-yl)-1-(pyridin-2-yl)propan-2-ol], which MIC is on record?
The MIC was 1.5 to 4 µg/mL (≈ 4.27 to 11.4 µM).

Which MIC does the source give for `N#C/C=C/c1ccc(C(F)(F)C(O)(Cn2cnnn2)c2ccc(F)cc2F)nc1` (centres unmarked) [Compound 3, (E)-3-(6-(2-(2,4-Difluorophenyl)-1,1-difluoro-2-hydroxy-3-(1H-tetrazol-1-yl)propyl)pyridin-3-yl)acrylonitrile] here?
Its MIC is 1.5 µg/mL (≈ 3.71 µM).

`CCOC(=O)CCc1ccc(C(F)(F)C(O)(Cn2cnnn2)c2ccc(F)cc2F)nc1` (centres unmarked) [Compound 5, Ethyl 3-(6-(2-(2,4-difluorophenyl)-1,1-difluoro-2-hydroxy-3-(1H-tetrazol-1-yl)propyl)pyridin-3-yl)propanoate] was tested. Which MIC did it give?
The MIC was no more than 0.5 µg/mL.

Which MIC does the source give for `O=C(c1ccc(C(F)(F)C(O)(Cn2cnnn2)c2ccc(F)cc2F)nc1)c1ccc(F)c(F)c1` (centres unmarked) [Compound 70, (3,4-Difluorophenyl)(6-(2-(2,4-difluorophenyl)-1,1-difluoro-2-hydroxy-3-(1H-tetrazol-1-yl)propyl)pyridin-3-yl)methanone] here?
Its MIC is no more than 0.5 µg/mL.

How did the MIC turn out when `OC(Cn1cnnn1)(c1ccc(C(F)(F)F)cc1F)C(F)(F)c1ccc(Br)cn1` (centres unmarked) [Compound 23, 1-(5-Bromopyridin-2-yl)-1,1-difluoro-2-(2-fluoro-4-(trifluoromethyl)phenyl)-3-(1H-tetrazol-1-yl)propan-2-ol] was run?
The MIC was 1.5 to 4 µg/mL (≈ 3.11 to 8.3 µM).

`OC(c1ccc(C(F)(F)F)cc1)c1ccc(C(F)(F)C(O)(Cn2cnnn2)c2ccc(F)cc2F)nc1` (centres unmarked) [Compound 72, 2-(2,4-Difluorophenyl)-1,1-difluoro-1-(5-(hydroxy(4-(trifluoromethyl)phenyl)methyl)pyridin-2-yl)-3-(1H-tetrazol-1-yl)propan-2-ol] was tested. Which MIC did it give?
Its MIC is 1.5 to 4 µg/mL (≈ 2.84 to 7.58 µM).

How did the MIC turn out when `OC(c1ccc(C(F)(F)C(O)(Cn2cnnn2)c2ccc(F)cc2F)nc1)C(F)(F)F` (centres unmarked) [Compound 56, (2-(2,4-Difluorophenyl)-1,1-difluoro-3-(1H-tetrazol-1-yl)-1-(5-(2,2,2-trifluoro-1-hydroxyethyl)pyridin-2-yl)propan-2-ol)] was run?
The MIC was greater than 4 µg/mL.

`CC(F)(c1ccc(Br)cn1)C(O)(Cn1cnnn1)c1ccc(F)cc1F` (centres unmarked) [Compound 84, 3-(5-Bromopyridin-2-yl)-2-(2,4-difluorophenyl)-3-fluoro-1-(1H-tetrazol-1-yl)butan-2-ol] was tested. Which MIC did it give?
Its MIC is 1.5 µg/mL (≈ 3.5 µM).

Which MIC does the source give for `OC(Cn1cnnn1)(c1ccc(F)cc1F)C(F)(F)c1ccc(/C=C/Cn2cnnn2)cn1` (centres unmarked) [Compound 42, (E)-1-(5-(3-(1H-Tetrazol-1-yl)prop-1-en-1-yl)pyridin-2-yl)-2-(2,4-difluorophenyl)-1,1-difluoro-3-(1H-tetrazol-1-yl)propan-2-ol] here?
The MIC was greater than 4 µg/mL.

How did the MIC turn out when `COC/C=C\c1ccc(C(F)(F)C(O)(Cn2cnnn2)c2ccc(F)cc2F)nc1` (centres unmarked) [Compound 49, (Z)-2-(2,4-Difluorophenyl)-1,1-difluoro-1-(5-(3-methoxyprop-1-en-1-yl)pyridin-2-yl)-3-(1H-tetrazol-1-yl)propan-2-ol] was run?
The MIC was no more than 0.5 µg/mL.

For `OC(Cn1cnnn1)(c1ccc(F)cc1F)C(F)(F)c1ccc(-c2cnc(Cl)nc2)cn1` (centres unmarked) [Compound 57, 1-(5-(2-Chloropyrimidin-5-yl)pyridin-2-yl)-2-(2,4-difluorophenyl)-1,1-difluoro-3-(1H-tetrazol-1-yl)propan-2-ol], which MIC is on record?
The MIC was greater than 4 µg/mL.

With `OC(Cc1cc[nH]n1)(c1ccc(F)cc1F)C(F)(F)c1ccc(Br)cn1` (centres unmarked) [Compound 62, 1-(5-Bromopyridin-2-yl)-2-(2,4-difluorophenyl)-1,1-difluoro-3-(1H-pyrazol-3-yl)propan-2-ol] as the compound, how does the MIC read?
The MIC was no more than 0.5 µg/mL.

Which MIC does the source give for `OC(Cn1cnnn1)(c1ccc(F)cc1F)C(F)(F)c1cccc(Br)n1` (centres unmarked) [Compound 20, 1-(6-Bromopyridin-2-yl)-2-(2,4-difluorophenyl)-1,1-difluoro-3-(1H-tetrazol-1-yl)propan-2-ol] here?
Its MIC is 1.5 to 4 µg/mL (≈ 3.47 to 9.26 µM).

For `COc1ncc(-c2ccc(C(F)(F)C(O)(Cn3cnnn3)c3ccc(F)cc3F)nc2)cn1` (centres unmarked) [Compound 37, 2-(2,4-Difluorophenyl)-1,1-difluoro-1-(5-(2-methoxypyrimidin-5-yl)pyridin-2-yl)-3-(1H-tetrazol-1-yl)propan-2-ol], which MIC is on record?
Its MIC is 1.5 to 4 µg/mL (≈ 3.25 to 8.67 µM).

With `OC(Cn1cnnn1)(c1cc(F)ccc1F)C(F)(F)c1ccc(Br)cn1` (centres unmarked) [Compound 21, 1-(5-Bromopyridin-2-yl)-2-(2,5-difluorophenyl)-1,1-difluoro-3-(1H-tetrazol-1-yl)propan-2-ol] as the compound, how does the MIC read?
Its MIC is greater than 4 µg/mL.

Which MIC does the source give for `CC(C)OCc1ccc(C(F)(F)C(O)(Cn2cnnn2)c2ccc(F)cc2F)nc1` (centres unmarked) [Compound 91, 2-(2,4-difluorophenyl)-1,1-difluoro-1-(5-(isopropoxymethyl)pyridin-2-yl)-3-(1H-tetrazol-1-yl)propan-2-ol] here?
Its MIC is 1.5 µg/mL (≈ 3.53 µM).

How did the MIC turn out when `OC(Cc1cncs1)(c1ccc(F)cc1F)C(F)(F)c1ccccn1` (centres unmarked) [Compound 86, 2-(2,4-Difluorophenyl)-1,1-difluoro-1-(pyridin-2-yl)-3-(thiazol-5-yl)propan-2-ol] was run?
The MIC was no more than 0.5 µg/mL.

`CC(C)OCCCc1ccc(C(F)(F)C(O)(Cn2cnnn2)c2ccc(F)cc2F)nc1` (centres unmarked) [Compound 55, 2-(2,4-Difluorophenyl)-1,1-difluoro-1-(5-(3-isopropoxypropyl)pyridin-2-yl)-3-(1H-tetrazol-1-yl)propan-2-ol] was tested. Which MIC did it give?
Its MIC is no more than 0.5 µg/mL.

For `OC(Cn1cnnn1)(c1ccc(F)cc1F)C(F)(F)c1ccc(C(F)(F)F)cn1` (centres unmarked) [Compound 19, 2-(2,4-Difluorophenyl)-1,1-difluoro-3-(1H-tetrazol-1-yl)-1-(5-(trifluoromethyl)pyridin-2-yl)propan-2-ol], which MIC is on record?
Its MIC is 1.5 to 4 µg/mL (≈ 3.56 to 9.49 µM).

With `COC(=O)CSc1ccc(C(F)(F)C(O)(Cn2cnnn2)c2ccc(F)cc2F)nc1` (centres unmarked) [Compound 41, Methyl 2-((6-(2-(2,4-difluorophenyl)-1,1-difluoro-2-hydroxy-3-(1H-tetrazol-1-yl)propyl)pyridin-3-yl)thio)acetate] as the compound, how does the MIC read?
Its MIC is greater than 4 µg/mL.

Which MIC does the source give for `OC(Cn1cnnn1)(c1ccc(F)cc1F)C(F)(F)c1cc(F)ccn1` (single isomer, unassigned) [ent-13, 2-(2,4-Difluorophenyl)-1,1-difluoro-1-(4-fluoropyridin-2-yl)-3-(1H-tetrazol-1-yl)propan-2-ol] here?
Its MIC is 1.5 µg/mL (≈ 4.04 µM).

For `OC(Cn1cnnn1)(c1ccc(F)cc1F)C(F)(F)c1ccc(Cc2ccc(Cl)nc2)cn1` (centres unmarked) [Compound 97, 1-(5-((6-chloropyridin-3-yl)methyl)pyridin-2-yl)-2-(2,4-difluorophenyl)-1,1-difluoro-3-(1H-tetrazol-1-yl)propan-2-ol], which MIC is on record?
Its MIC is no more than 0.5 µg/mL.

With `OC(Cn1cnnn1)(c1ccc(F)cc1F)C(F)(F)c1ccc(N2CCOCC2)cn1` (centres unmarked) [Compound 81, 2-(2,4-Difluorophenyl)-1,1-difluoro-1-(5-morpholinopyridin-2-yl)-3-(1H-tetrazol-1-yl)propan-2-ol] as the compound, how does the MIC read?
Its MIC is 1.5 to 4 µg/mL (≈ 3.42 to 9.12 µM).

How did the MIC turn out when `OC(c1cncnc1)(c1ccc(F)cc1F)C(F)(F)c1ccc(Br)cn1` (centres unmarked) [Compound 58, 2-(5-Bromopyridin-2-yl)-1-(2,4-difluorophenyl)-2,2-difluoro-1-(pyrimidin-5-yl)ethanol] was run?
The MIC was 1.5 µg/mL (≈ 3.5 µM).

Which MIC does the source give for `OC(Cn1cnnn1)(c1ccc(F)cc1F)C(F)(F)c1cc(Br)ccn1` (centres unmarked) [Compound 24, 1-(4-Bromopyridin-2-yl)-2-(2,4-difluorophenyl)-1,1-difluoro-3-(1H-tetrazol-1-yl)propan-2-ol] here?
The MIC was 1.5 to 4 µg/mL (≈ 3.47 to 9.26 µM).
